The values that follow come from ChEMBL document CHEMBL5537178, “Discovery of TP0628103: A Highly Potent and Selective MMP-7 Inhibitor with Reduced OATP-Mediated Clearance Designed by Shifting Isoelectric Points” (J Med Chem, 2024).

One may read the clearance as a measure of how efficiently the substance is removed, as volume per time. As a reminder, the pIC50 is the IC50 on a negative log10 scale, so that one unit is a factor of ten. The fraction unbound is free concentration divided by total concentration.

A short description of data set [1]: Plasma unbound drug concentration at steady state in UUO surgery-induced renal fibrosis C57BL/6J mouse model at 1 mg/kg/day, sc administered with mini osmotic pump measured after 3 days. The data set is classed as ADME, organism-based. As to conditions: in vivo, 72 h, time 3 day; call rule not given here.
Data set [2] can be described thus: Clearance in cynomolgus monkey at 1 mg/kg, iv. It is filed as ADME, organism-based, Macaca fascicularis. Conditions: in vivo.
The target in data set [3] is Voltage-gated inwardly rectifying potassium channel KCNH2 (Homo sapiens, UniProt Q12809). The data set can be described thus: Inhibition of hERG at 10 uM. The data set is classed as toxicity.
Data set [4] addresses T1, CYP2C8 (Homo sapiens, UniProt P10632).
T1 sequence (P10632 whole entry): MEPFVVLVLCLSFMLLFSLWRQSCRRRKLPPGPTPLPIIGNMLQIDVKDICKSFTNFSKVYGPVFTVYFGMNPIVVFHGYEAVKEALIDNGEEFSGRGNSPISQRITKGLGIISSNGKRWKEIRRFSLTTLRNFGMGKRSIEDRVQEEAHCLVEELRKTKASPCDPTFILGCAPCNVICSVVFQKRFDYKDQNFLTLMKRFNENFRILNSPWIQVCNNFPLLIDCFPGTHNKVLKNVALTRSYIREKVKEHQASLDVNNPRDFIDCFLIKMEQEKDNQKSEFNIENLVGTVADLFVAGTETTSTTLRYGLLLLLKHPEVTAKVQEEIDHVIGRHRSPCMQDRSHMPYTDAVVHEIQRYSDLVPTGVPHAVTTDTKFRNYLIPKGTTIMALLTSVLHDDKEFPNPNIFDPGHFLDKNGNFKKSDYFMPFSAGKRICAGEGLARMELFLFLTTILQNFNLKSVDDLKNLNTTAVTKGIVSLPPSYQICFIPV
Put plainly: Time dependent inhibition of CYP2C8 in human liver microsomes at 10 uM by LC-MS/MS analysis relative to control. Conditions: read-out: TDI. The data set is classed as ADME, Microsome. (In general: Liver microsomes are vesicles of endoplasmic reticulum, rich in cytochrome P450 enzymes.)

The next data set has as its target T2, CYP1A2 (Homo sapiens, UniProt P05177).
T2 sequence (P05177 whole entry): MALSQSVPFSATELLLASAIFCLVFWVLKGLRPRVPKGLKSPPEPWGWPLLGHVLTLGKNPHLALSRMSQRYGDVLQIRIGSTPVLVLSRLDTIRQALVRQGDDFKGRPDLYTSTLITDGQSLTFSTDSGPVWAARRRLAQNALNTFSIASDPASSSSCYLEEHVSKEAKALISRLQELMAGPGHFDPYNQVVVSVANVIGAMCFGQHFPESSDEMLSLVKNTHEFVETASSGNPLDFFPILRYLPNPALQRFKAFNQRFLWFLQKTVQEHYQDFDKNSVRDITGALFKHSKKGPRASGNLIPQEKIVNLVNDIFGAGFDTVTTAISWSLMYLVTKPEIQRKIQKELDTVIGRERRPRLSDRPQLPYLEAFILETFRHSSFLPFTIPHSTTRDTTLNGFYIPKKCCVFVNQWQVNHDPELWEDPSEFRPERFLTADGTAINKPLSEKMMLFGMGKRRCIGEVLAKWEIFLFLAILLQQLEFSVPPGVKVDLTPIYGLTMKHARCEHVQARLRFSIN
Put plainly: Time dependent inhibition of CYP1A2 in human liver microsomes at 10 uM by LC-MS/MS analysis relative to control. It is filed as ADME, Microsome. As to conditions: read-out: TDI.

Data set [5] can be described thus: Clearance in Sprague-Dawley rat at 0.5 mg/kg, iv. The data set is classed as ADME, organism-based. As to conditions: in vivo.
Data set [6] is described as follows: Inhibition of recombinant mouse MMP1 assessed as enzyme activity by measuring fluorescence using fluorogenic peptide substrate.
The next data set has as its target Stromelysin-1 (Homo sapiens, UniProt P08254). Put plainly: Inhibition of recombinant human MMP3 assessed as enzyme activity by measuring fluorescence using fluorogenic peptide substrate.
For a further data set, the target named is T3, CYP2B6 (Homo sapiens, UniProt P20813).
T3 sequence (P20813 whole entry): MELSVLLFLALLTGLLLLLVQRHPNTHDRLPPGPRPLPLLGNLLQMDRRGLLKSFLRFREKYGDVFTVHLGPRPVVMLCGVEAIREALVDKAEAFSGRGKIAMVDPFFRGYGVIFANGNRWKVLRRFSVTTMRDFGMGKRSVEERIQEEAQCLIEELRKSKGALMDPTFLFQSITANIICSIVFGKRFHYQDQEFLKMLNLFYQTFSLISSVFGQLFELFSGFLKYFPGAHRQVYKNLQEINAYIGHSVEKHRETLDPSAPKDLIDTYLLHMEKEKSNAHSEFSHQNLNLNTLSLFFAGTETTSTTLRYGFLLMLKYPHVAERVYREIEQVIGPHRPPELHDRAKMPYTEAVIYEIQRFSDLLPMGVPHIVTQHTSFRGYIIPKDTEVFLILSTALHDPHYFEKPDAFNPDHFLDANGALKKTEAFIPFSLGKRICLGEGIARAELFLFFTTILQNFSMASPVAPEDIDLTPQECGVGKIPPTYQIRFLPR
The data set can be described thus: Time dependent inhibition of CYP2B6 in human liver microsomes at 10 uM by LC-MS/MS analysis relative to control. Conditions: read-out: TDI. It is filed as ADME, Microsome.

The next data set addresses Collagenase 3 (Homo sapiens, UniProt P45452). Put plainly: Inhibition of recombinant human MMP13 assessed as enzyme activity by measuring fluorescence using fluorogenic peptide substrate.
The target of data set [7] is T4, CYP2C19 (Homo sapiens, UniProt P33261). The data set can be described thus: Time dependent inhibition of CYP2C19 in human liver microsomes at 10 uM by LC-MS/MS analysis relative to control. It is filed as ADME, Microsome. Conditions: read-out: TDI.
Data set [8] addresses T4, CYP2C19. Put plainly: Inhibition of CYP2C19 in human liver microsomes at 10 uM by LC-MS/MS analysis relative to control. It is filed as ADME, Microsome.
The target in data set [9] is Matrix metalloproteinase-14 (Homo sapiens, UniProt P50281). Put plainly: Inhibition of recombinant human MMP14 assessed as enzyme activity by measuring fluorescence using fluorogenic peptide substrate.
Another data set concerns the target CYP2C9 (Homo sapiens, UniProt P11712). Put plainly: Inhibition of CYP2C9 in human liver microsomes at 10 uM by LC-MS/MS analysis relative to control. It is filed as ADME, Microsome.
Data set [10] can be described thus: Plasma unbound drug concentration at steady state in UUO surgery-induced renal fibrosis C57BL/6J mouse model at 0.3 mg/kg/day, sc administered with mini osmotic pump measured after 3 days. The data set is classed as ADME, organism-based. Conditions: in vivo, 72 h, time 3 day.
In data set [11] the target is T5, CYP3A (Homo sapiens, UniProt P08684+P20815+P24462+Q9HB55). Put plainly: Inhibition of CYP3A in human liver microsomes using testosterone as substrate at 10 uM by LC-MS/MS analysis relative to control. The data set is classed as ADME, Microsome. Conditions: probe testosterone.
For data set [12], the target named is T1, CYP2C8. Put plainly: Inhibition of CYP2C8 in human liver microsomes at 10 uM by LC-MS/MS analysis relative to control. It is filed as ADME, Microsome.
In data set [13] the target is T5, CYP3A. Put plainly: Inhibition of CYP3A in human liver microsomes using midazolam as substrate at 10 uM by LC-MS/MS analysis relative to control. The data set is classed as ADME, Microsome. Conditions: probe midazolam.
A short description of data set [14]: Fraction unbound in human. It is filed as ADME.
The target of the next data set is CYP2D6 (Homo sapiens, UniProt P10635). Put plainly: Time dependent inhibition of CYP2D6 in human liver microsomes at 10 uM by LC-MS/MS analysis relative to control. It is filed as ADME, Microsome. Conditions: read-out: TDI.

pIC50: −log10 of the molar value.

T4 sequence (P33261 whole entry): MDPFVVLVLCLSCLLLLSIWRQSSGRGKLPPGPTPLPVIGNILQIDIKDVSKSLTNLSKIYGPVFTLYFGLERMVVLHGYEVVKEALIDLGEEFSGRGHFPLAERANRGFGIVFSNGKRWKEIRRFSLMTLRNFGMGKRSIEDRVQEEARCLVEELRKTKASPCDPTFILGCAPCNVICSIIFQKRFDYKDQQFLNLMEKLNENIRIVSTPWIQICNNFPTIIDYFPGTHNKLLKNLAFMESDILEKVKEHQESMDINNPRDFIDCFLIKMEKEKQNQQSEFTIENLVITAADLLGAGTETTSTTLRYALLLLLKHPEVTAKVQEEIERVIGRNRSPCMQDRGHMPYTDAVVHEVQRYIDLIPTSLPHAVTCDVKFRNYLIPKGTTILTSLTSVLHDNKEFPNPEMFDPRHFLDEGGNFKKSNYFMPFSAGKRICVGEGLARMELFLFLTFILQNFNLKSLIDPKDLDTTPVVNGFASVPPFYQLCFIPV
Chain of Stromelysin-1 (P08254 whole entry): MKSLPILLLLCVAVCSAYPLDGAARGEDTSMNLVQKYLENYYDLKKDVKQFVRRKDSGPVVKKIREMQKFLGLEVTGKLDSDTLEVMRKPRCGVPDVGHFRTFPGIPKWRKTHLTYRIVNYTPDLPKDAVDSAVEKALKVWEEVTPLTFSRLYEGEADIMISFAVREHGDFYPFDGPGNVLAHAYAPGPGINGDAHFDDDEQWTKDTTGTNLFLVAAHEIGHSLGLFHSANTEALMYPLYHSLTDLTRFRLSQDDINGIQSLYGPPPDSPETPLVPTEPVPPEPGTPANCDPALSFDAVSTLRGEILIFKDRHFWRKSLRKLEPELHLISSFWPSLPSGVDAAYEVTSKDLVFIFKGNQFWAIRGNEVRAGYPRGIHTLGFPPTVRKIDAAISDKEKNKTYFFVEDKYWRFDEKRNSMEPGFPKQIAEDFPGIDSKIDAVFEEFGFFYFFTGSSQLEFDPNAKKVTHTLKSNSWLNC
Chain of Voltage-gated inwardly rectifying potassium channel KCNH2 (Q12809 whole entry): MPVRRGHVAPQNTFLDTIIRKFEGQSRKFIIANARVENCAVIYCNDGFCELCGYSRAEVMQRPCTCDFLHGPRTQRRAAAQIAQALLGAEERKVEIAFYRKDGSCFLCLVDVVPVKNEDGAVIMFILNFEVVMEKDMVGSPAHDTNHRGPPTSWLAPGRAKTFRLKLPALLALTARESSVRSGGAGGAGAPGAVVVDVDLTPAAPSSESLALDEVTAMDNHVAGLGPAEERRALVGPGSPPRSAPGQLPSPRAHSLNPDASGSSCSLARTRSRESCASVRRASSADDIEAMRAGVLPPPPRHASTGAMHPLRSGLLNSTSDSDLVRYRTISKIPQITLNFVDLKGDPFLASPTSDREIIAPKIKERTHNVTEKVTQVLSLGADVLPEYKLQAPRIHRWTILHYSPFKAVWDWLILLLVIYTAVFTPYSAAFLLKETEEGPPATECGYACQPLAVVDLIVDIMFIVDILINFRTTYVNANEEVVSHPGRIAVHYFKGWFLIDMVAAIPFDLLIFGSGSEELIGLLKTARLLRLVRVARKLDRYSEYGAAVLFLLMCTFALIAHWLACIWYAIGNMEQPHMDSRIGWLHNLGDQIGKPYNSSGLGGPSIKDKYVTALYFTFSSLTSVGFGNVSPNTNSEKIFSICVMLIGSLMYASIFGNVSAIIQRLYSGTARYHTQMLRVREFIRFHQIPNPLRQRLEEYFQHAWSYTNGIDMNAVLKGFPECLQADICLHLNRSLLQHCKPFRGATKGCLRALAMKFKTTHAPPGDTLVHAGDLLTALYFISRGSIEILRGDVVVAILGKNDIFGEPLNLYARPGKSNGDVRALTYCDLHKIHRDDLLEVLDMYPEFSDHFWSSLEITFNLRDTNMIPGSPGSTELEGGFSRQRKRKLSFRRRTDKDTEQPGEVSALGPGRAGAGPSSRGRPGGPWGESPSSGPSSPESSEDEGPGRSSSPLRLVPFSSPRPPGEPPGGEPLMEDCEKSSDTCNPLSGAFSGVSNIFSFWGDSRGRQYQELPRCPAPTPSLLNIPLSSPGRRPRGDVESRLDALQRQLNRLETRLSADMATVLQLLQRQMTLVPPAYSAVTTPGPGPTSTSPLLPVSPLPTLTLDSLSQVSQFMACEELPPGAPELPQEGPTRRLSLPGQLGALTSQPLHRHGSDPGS
Chain of CYP2C9 (P11712 whole entry): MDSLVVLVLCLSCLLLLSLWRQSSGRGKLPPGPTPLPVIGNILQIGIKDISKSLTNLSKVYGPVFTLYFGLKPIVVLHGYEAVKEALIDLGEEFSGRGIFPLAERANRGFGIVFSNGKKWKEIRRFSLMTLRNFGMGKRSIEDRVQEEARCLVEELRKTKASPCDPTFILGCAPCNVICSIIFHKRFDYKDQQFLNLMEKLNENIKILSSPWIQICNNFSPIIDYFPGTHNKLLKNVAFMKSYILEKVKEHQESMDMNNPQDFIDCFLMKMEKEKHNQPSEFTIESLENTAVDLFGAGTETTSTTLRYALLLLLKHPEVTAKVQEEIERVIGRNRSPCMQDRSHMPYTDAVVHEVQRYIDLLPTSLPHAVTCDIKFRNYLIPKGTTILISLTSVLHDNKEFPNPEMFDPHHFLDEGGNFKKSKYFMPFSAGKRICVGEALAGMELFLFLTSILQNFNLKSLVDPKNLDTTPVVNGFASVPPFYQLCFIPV
Chain of CYP2D6 (P10635 whole entry): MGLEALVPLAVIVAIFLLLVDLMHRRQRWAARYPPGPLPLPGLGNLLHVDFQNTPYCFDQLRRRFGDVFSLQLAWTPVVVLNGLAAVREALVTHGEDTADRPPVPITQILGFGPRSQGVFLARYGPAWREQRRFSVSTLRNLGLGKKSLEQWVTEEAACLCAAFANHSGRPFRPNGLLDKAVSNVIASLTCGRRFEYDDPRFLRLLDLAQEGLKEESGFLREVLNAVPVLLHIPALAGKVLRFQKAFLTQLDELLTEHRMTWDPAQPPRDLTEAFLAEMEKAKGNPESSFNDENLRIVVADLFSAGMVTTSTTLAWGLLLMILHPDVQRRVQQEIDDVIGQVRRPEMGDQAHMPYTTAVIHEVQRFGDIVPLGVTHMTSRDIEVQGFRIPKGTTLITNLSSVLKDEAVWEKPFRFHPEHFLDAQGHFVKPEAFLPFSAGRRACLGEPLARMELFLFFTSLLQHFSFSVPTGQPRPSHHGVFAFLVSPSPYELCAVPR

Regarding `CC(C)(C)[C@H](NC(=O)[C@H](Cc1ccncc1)NC(=O)CNC(=O)CC[C@H](NS(=O)(=O)c1ccc(Cl)c(C(F)(F)F)c1)C(=O)O)C(=O)Nc1ccc(C(=O)N2CCC(C(=O)N[C@H](CCCCN)C(=O)N3CC[C@H](N)C3)CC2)cc1`, the “Cp(f)” value in data set [1] was found to be 15.6 nM; in data set [10] it was 6.56 nM. Besides, the clearance is 0.918 mL/min/kg in [2] and 3.52 mL/min/kg in data set [5]. Further, in data set [3], the “inhibition (INH)” value is listed as “Not Active”. In addition, the inhibition at 10 µM was 9.1% at CYP2C8 [4]; -5% on CYP1A2; -4.8% on CYP2B6; 4.8% on CYP2C19 [7]; -4.3% at CYP2C19 [8]; 0.5% at CYP2C9. Besides, the inhibition at 10 µM is 2.5% at CYP3A [11], 14.4% at CYP2C8 [12], 6% on CYP3A [13] and -2.9% at CYP2D6. The pIC50 in data set [6] is 8.39; at Stromelysin-1, less than 5.00; at Collagenase 3, less than 5.00; in data set [9] it was 5.77. The fraction unbound in data set [14] came out at 0.135.
